This note sets out measurements from patent publication US11691984B2, “Compounds and methods for DCAF-mediated protein degradation” (The Scripps Research Institute, priority 2018, dated 2023).

Series [1] is described as follows: Cell viability assay (Cell Titer Glo). It is filed as cell-based, human. The settings on record: human, HEK293T cells, 24 hours, read-out: cytotoxicity IC50. As for the experimental part:
HEK293T cells were seeded in 96-well clear bottom white plate (Corning) at 3×10^4 cells per well in 100 μL of DMEM medium and grown for 24 h. The cells were treated with 0.625, 1.25, 2.5, 5, 10, 20 and 40 μM of KB02-SLF or KB02-JQ1 (DMSO stock, final DMEM concentration is 0.1% (v/v)) in 100 μL of DMEM medium for 24 h. 50 μL of Cell Titer Glo reagent (Promega) was added to each well and incubate for 10 min at room temperature. The luminescence was read on CLARIOstar (BMG LAB TECH).

The next series has as its target T1, DCAF16 (Homo sapiens, UniProt Q9NXF7).
T1 construct: endogenously expressed DCAF16 in HEK293T cells; endogenous in cells; host or cells: HEK293T
As to the kind of experiment: Competitive ABPP (TMT) of cysteine engagement in endogenous DCAF16. It is filed as cell-based. Particulars: HEK293T, 1.5 h. As for the experimental part:
HEK293T cells were treated with DMSO (four biological replicates), 2 μM KB02-SLF (three biological replicates) or 20 μM KB02-JQ1 (three biological replicates) for 1.5 h (ten samples in total). Cells were collected, washed once with PBS and lysed in PBS by sonication (40%, 4, 20 pulses). Samples were clarified by centrifugation for 10 min at 8,000 g. Lysate was adjusted to 1.0 mg/mL in 500 μL. Samples were labeled with 100 μM iodoacetamide alkyne (5 μL of 10 mM stock in DMSO) at room temperature for 1 hour, conjugated by CuACC to desthiobiotin azide (10 μL of 5 mM stock in DMSO, final concentration=100 tris(2-carboxyethyl)phosphine hydrochloride (TCEP, 10 μL of 50 mM stock in H2O, final concentration=1 mM), TBTA (30 μL of 1.7 mM stock in 4:1 tBuOH:DMSO, final concentration=100 μM) and CuSO4 (10 μL of 50 mM stock in H2O, final concentration=1 mM). The samples were allowed to react for 1 hour at room temperature. Proteins were precipitated by adding 3.5 mL of H2O, 4 mL of methanol and 1.5 mL of chloroform, followed by centrifugation at 5,000 g for 15 min (4° C.). After aspirating the top layer, the protein pellets with bottom layer were washed with 8 mL cold methanol by centrifugation at 5,000 g for 15 min (4° C.). Protein pellets were resuspended in 90 μL of buffer containing 9 M urea, 10 mM DTT and 50 mM tetramethylammonium bicarbonate (pH 8.5), sonicated (40%, 4, 5 pulses) and heated at 65° C. for 20 min. Samples were cooled to room temperature and alkylated with 50 mM iodoacetamide (10 μL of 500 mM stock in H2O) at 37° C. for 30 minutes. Samples were diluted with 350 μL of 50 mM tetramethylammonium bicarbonate (pH 8.5) and digested with 2 μg trypsin at 37° C. for 4 hours. 40 μL of streptavidin-agarose beads slurry was washed in immunoprecipitation (IP) washing buffer and added to each sample. Beads with peptide samples were rotated for 1 hour at room temperature, filtered off by micro Bio-Spin chromatography column (Bio-Rad) and washed with 1 mL of IP washing buffer (three times), 1 mL of PBS (three times) and 1 mL of H2O. Peptides were eluted by adding 300 μL of 50% acetonitrile with 0.1% of formic acid and dried in vacuum concentrator.
Peptides were resuspended in 100 μL of 30% acetonitrile in 200 mM EPPS (pH 8) and labeled with TMT10plex isobaric reagent following the manufacturer's instructions. 0.15% of hydroxylamine (3 μL of 5% stock in H2O) was added to each sample to quench the reaction (incubate for 15 minutes). After adding 5 μL of formic acid to each sample, 10 peptide samples were combined and dried in vacuum concentrator. […]
The samples were analyzed in Orbitrap Fusion Tribrid mass spectrometer (Thermo Scientific) coupled to UltiMate 3000 HPLC system (Thermo Scientific). […]

`Cc1sc2c(c1C)C(c1ccc(Cl)cc1)=N[C@@H](CC(=O)NCCOCCOCCNC(=O)COc1ccc3c(c1)CCCN3C(=O)CCl)c1nnc(C)n1-2` [KB02-JQ1, (S)-2-((1-(2-chloroacetyl)-1,2,3,4-tetrahydroquinolin-6-yl)oxy)-N-(2-(2-(2-(2-(4-(4-chlorophenyl)-2,3,9-trimethyl-6H-thieno[3,2-f][1,2,4]triazolo[4,3-a][1,4]diazepin-6-yl)acetamido)ethoxy)ethoxy)ethyl)acetamide]: in series [1], the IC50 (as a rule, the concentration needed to halve the response being measured) at 24 h was greater than 50 µM. Also, at DCAF16 (KB02-JQ1 20 μM), the “engagement of DCAF16 C119” value is “no evidence of engagement”; the “engagement of DCAF16 peptide (aa 168-184) containing cysteines 173 and 177-179” value was determined as 40%.

Consider `CCC(C)(C)C(=O)C(=O)N1CCCC[C@H]1C(=O)O[C@H](CCc1ccc(OC)c(OC)c1)c1cccc(NC(=O)CCOCCOCCNC(=O)COc2ccc3c(c2)CCCN3C(=O)CCl)c1` [KB02-SLF, (R)-1-(3-(3-(2-(2-(2-((1-(2-chloroacetyl)-1,2,3,4-tetrahydroquinolin-6-yl)oxy)acetamido)ethoxy)ethoxy)propanamido)phenyl)-3-(3,4-dimethoxyphenyl)propyl (S)-1-(3,3-dimethyl-2-oxopentanoyl)piperidine-2-carboxylate], for which the IC50 at 24 h in series [1] worked out at 14 ± 1.1 µM. For the same compound, at DCAF16 (KB02-SLF 2 μM), the “engagement of DCAF16 C119” value is “no evidence of engagement”; the “engagement of DCAF16 peptide (aa 168-184) containing cysteines 173 and 177-179” value is reported as roughly 10%.
